Test results: paper PMC7423395, “Male-predominant galanin mediates androgen-dependent aggressive chases in medaka” (eLife, 2020)

Tests used:
Type in all cases: in vivo, medaka (Oryzias latipes)
adult female medaka = assay: Aggressive behavior test of KT-treated females; conditions: 100 ng/ml KT by immersion for 10 days, main effect of androgen treatment
From the text: (§1) For both male and female fish, the gonad was removed under tricaine methane sulfonate anesthesia (0.02%) (Sigma-Aldrich, St. Louis, MO) through a small incision made in the ventrolateral abdominal wall. Immediately after removal of the gonad, the incision was sutured with nylon thread. Sham-operated fish received the same surgical treatment as gonadectomized fish, except for removal of the gonad. After a recovery period of 3 days in saline (0.9% (w/v) NaCl), gonadectomized fish were immersed in water containing 100 ng/ml of KT (Cosmo Bio, Tokyo, Japan) or E2 (Fujifilm Wako Pure Chemical Corporation), or vehicle (ethanol) alone for 6 days and then sampled. […]
All behavioral procedures were conducted in 2-l rectangular tanks contained within a large recirculating water system with a constant influx of dechlorinated tap water. […] The partitions were then removed, and the fish were allowed to interact for 20 min while their behavior was recorded as described above. […]
In each test, wild-type, heterozygous, and homozygous siblings reared under the same conditions were used as the comparison group. The total number of each aggressive act (chase, fin display, circle, strike, and bite) performed by the four fish in the tank was counted manually from the video recordings. In addition, the total number of chases by the four fish in the tank was calculated for each 5 min interval during the test period. […]

[1] = tested on: gal-expressing neurons in brain nuclei; assay: Number of gal-expressing neurons by in situ hybridization in gonadectomized, sex steroid-treated fish; conditions: 100 ng/ml by immersion for 6 days, n = 5 per group; for ovariectomy-induced increase in the number of gal-expressing neurons in pPMp, effect of steroid treatment: ovariectomized adult females
From the text: For both male and female fish, the gonad was removed under tricaine methane sulfonate anesthesia (0.02%) (Sigma-Aldrich, St. Louis, MO) through a small incision made in the ventrolateral abdominal wall. Immediately after removal of the gonad, the incision was sutured with nylon thread. Sham-operated fish received the same surgical treatment as gonadectomized fish, except for removal of the gonad. After a recovery period of 3 days in saline (0.9% (w/v) NaCl), gonadectomized fish were immersed in water containing 100 ng/ml of KT (Cosmo Bio, Tokyo, Japan) or E2 (Fujifilm Wako Pure Chemical Corporation), or vehicle (ethanol) alone for 6 days and then sampled. Sham-operated fish were treated with vehicle alone and used as controls. In another experiment, females of gal knockout lines with intact ovaries were treated with 100 ng/ml of KT by immersion in water for 10 days and then sampled. The sex steroid concentration used was based on previously reported serum steroid levels in medaka ([Foran et al., 2002]; [Foran et al., 2004]; [Tilton et al., 2003]).
The procedure for single-label in situ hybridization has been described previously ([Hiraki et al., 2012]). In brief, whole brains were fixed in 4% paraformaldehyde (PFA) and embedded in paraffin. Serial coronal sections of 10 μm thickness were cut and hybridized with the DIG-labeled galr1 or galr2 probe or the same DIG-labeled gal probe used for Northern blot analysis. Hybridization signals were visualized by using alkaline phosphatase-conjugated anti-DIG antibody and 5-bromo-4-chloro-3-indolyl phosphate/nitro blue tetrazolium (BCIP/NBT) substrate (Roche Diagnostics). Color development was allowed to proceed for more than 5 hr, or was stopped after 15 min (for quantification of gal expression in males that were castrated and treated with sex steroids) or 1 hr (for quantification of gal expression in females that were ovariectomized and treated with sex steroids) to avoid saturation. All sections in each comparison were processed simultaneously under the same conditions. For galr1, for which hybridization signals were detected throughout the brain and thus the specificity of the staining was somewhat uncertain, in situ hybridization was also performed using a sense probe under conditions identical to those used for the antisense probe. No signal was obtained by the sense probe, confirming that the signals obtained by the antisense probe represented specific staining.
To obtain quantitative data, the number of gal-expressing neurons in each brain nucleus was counted manually. […] In this case, the total number of the neurons in the nuclei was counted. Only intensively labeled neurons with a clearly defined cell body were counted to reduce, if not eliminate, the likelihood of double counting of the neurons split between sections. […]

[2] = tested on: gal expression in the whole brain; assay: Whole-brain gal expression by real-time PCR in gonadectomized, sex steroid-treated fish; conditions: castrated adult males, 100 ng/ml by immersion in water for 6 days, normalized to actb, versus castrated vehicle
From the text: as §1, with “sampled. Sham-operated fish were treated with vehicle alone and used as controls.” for “sampled.”
In cases where there were fewer than seven data points per experimental group, individual data points were plotted with the mean ± standard error of the mean (SEM); in cases where there were seven or more data points per experimental group, data were plotted as box and whisker plots by the Tukey method for clarity. In real-time PCR analysis, the expression level of gal (normalized to that of actb) in female whole brain was arbitrarily set to 1, and the relative difference was calculated in each data set to facilitate comparisons among data sets.

| SMILES | number of bites (adult female medaka; adult females of gal knockout lines Δ2 and Δ10, 20 min test) | number of chases (adult female medaka; adult females of gal knockout lines Δ2 and Δ10 with intact ovaries, four fish per tank, 20 min, n = 6 per group) | number of gal-expressing neurons in pPMp reduced by castration, effect of steroid treatment ([1]; castrated adult males) | ovariectomy-induced increase in the number of gal-expressing neurons in pPMp, effect of steroid treatment [1] | level of brain gal expression reduced by castration, effect of steroid treatment [2] | number of gal-expressing neurons in aPMp/pPPa ([1]; castrated adult males) |
| --- | --- | --- | --- | --- | --- | --- |
| C[C@]12CC(=O)[C@H]3[C@@H](CCC4=CC(=O)CC[C@@]43C)[C@@H]1CC[C@@H]2O [KT, 11-ketotestosterone] | significantly increased | significantly increased | restored by KT treatment | further enhanced | restored by treatment with KT | – |
| C[C@]12CC[C@@H]3c4ccc(O)cc4CC[C@H]3[C@@H]1CC[C@@H]2O [E2, estradiol-17β] | – | – | – | significantly attenuated | – | increased |
